# Measured values reported in patent US20260284005A1, “INHIBITING MITOGEN-ACTIVATED PROTEIN (MAP)/ERK KINASE (MEK)1 AND MEK2 AND RELATED METHODS OF TREATMENT” (priority 2023, published 2026).
# Legend:
# HT-29 cells = assay: 3D-TGA; type: cell-based, human; conditions: Homo sapiens, HT-29, read-out: IC50 in 3D-TGA Encorafenib
# Method in brief: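 Seeding is in 3D BME/medium (1:1) matrix at 3000 cells per well, with growth at 37° C in 5% O2 and 5% CO2. EdU incorporation is detected via copper-catalysed click staining, and segmented images give the fraction of proliferating cells.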
# LS411N cells = assay: 3D-TGA; type: cell-based; conditions: Homo sapiens, LS-411N; LS411N, COL, BRAF V600E; read-out: IC50 in 3D-TGA Encorafenib
# [1] = tested on: HT-29 BRAF^V600E colorectal cancer xenograft; assay: HT-29 colorectal xenograft tumor model; type: in vivo, athymic nude mice; conditions: HT-29 BRAFV600E xenograft
# Source text: An integrated translational platform with integrated bioinformatics utilized patient-aligned model systems was used to identify key factors that help predict response to Compound A and its unique DCI profile.
# A375 cells = assay: 3D-TGA; type: cell-based; conditions: Homo sapiens, A-375, read-out: IC50 in 3D-TGA Encorafenib
# Experimental: Cells were seeded in 3D cultures in a black-walled, clear-bottom, non-tissue culture treated, 384-well plate (3000 cells per well) using a 1:1 mixture of BME and a custom media and grown in a humidified incubator with 5% CO2 and 5% O2, which approximates capillary levels for each gas, at 37° C. […] Cells were assessed for cell proliferation using EdU cell proliferation staining. […] Cells were permeabilized with 30 μL of filtered 0.5% Triton X-100 in PBS for 20 minutes at room temperature. Samples were washed twice gently with PBS. Cells were stained utilizing click-iT chemistry by adding 20 μL of staining cocktail containing 2 mM copper sulfate, 8 μM sulfo-Cy5-azide, and 20 mg/ml ascorbic acid in PBS and incubated 30-60 minutes at room temperature in dark. […] Plates were imaged with the Molecular Devices Pico ImageXpress. Images were segmented and percentage of cells with EdU incorporation was quantified to calculate antiproliferative effects of the drugs.
# Five (5)-ethynyl-2′-deoxyuridine (EdU) data was represented as percentage EdU positive cells quantified by high content imaging from the Molecular Devices ImageXpress® Pico.
smiles,measurement,setting,value
COC(=O)N[C@@H](C)CNc1nccc(-c2cn(C(C)C)nc2-c2cc(Cl)cc(NS(C)(=O)=O)c2F)n1 [encorafenib],IC50,HT-29 cells,> 1000 nM
same,IC50,LS411N cells,> 1000 nM
same,"tumor growth inhibition, monotherapy",[1],superior tumor growth inhibition to binimetinib
same,IC50,A375 cells,< 50 nM
